Measurements taken from ChEMBL document CHEMBL4007407, “Carbonic anhydrases from Trypanosoma and Leishmania as anti-protozoan drug targets” (Bioorg Med Chem, 2017).

Key:
[1] = Inhibition of Leishmania major trypanothione reductase
Leishmania [2] = assay: Antileishmanial activity against Leishmania in mucocutaneous leishmaniasis patient assessed as cure incidents at 4 mg/kg relative to control; format: functional
[3] = Inhibition of Trypanosoma cruzi N-terminal His-tagged full-length glucose-6-phosphate dehydrogenase expressed in Escherichia coli BL21(DE3) using glucose-6-phosphate as substrate in presence of NADP+ by spectrophotometric method
[4] = Inhibition of Trypanosoma cruzi glucose-6-phosphate dehydrogenase
Trypanosoma cruzi = assay: Antitrypanosomal activity against Trypanosoma cruzi Tulahuen amastigotes expressing beta-galactosidase gene infected in mouse NIH/3T3 cells after 4 days; format: functional, cell-based; details: NIH3T3, 96 h
[5] = Inhibition of Trypanosoma cruzi strain CL Brener N-terminal His6-tagged glucokinase expressed in Escherichia coli using D-glucose as substrate in presence of ATP by Lineweaver-Burk Plot analysis
[6] = Inhibition of Trypanosoma cruzi strain CL Brener N-terminal His6-tagged glucokinase expressed in Escherichia coli using D-glucose as substrate in presence of ATP by colorimetric assay
[7] = Inhibition of Trypanosoma cruzi SUMO-tagged glucose-6-phosphate dehydrogenase expressed in Escherichia coli BL21(DE3) using glucose-6-phosphate as substrate by diaphorase enzyme coupled fluorescence assay
[8] = Inhibition of Leishmania amazonensis squalene synthase
[9] = Mixed-type inhibition of Trypanosoma cruzi epimastigotes hexokinase using D-glucose as substrate in presence of ATP by Lineweaver-Burk Plot analysis
[10] = Inhibition of Trypanosoma cruzi hexokinase
Leishmania [11] = assay: Antileishmanial activity against Leishmania in visceral leishmaniasis patient assessed as cure incidents at 10 to 15 mg/kg, iv administered as single dose as lipid formulations relative to control; format: functional

Compound: O=C(CCl)N1c2ccccc2Sc2ccccc21
- IC50 [1]: 9.3 µM

Compound: N=C(N)c1ccc(OCCCCCOc2ccc(C(=N)N)cc2)cc1 [PENTAMIDINE]
- Activity (Leishmania [2]): 90 - 95%

Compound: C[C@]12CC[C@H](O)C[C@@H]1CC[C@@H]1[C@@H]2CC[C@]2(C)C(=O)CC[C@@H]12 [EPIANDROSTERONE]
- IC50 [3]: 3 µM
- Ki [3]: 3.2 µM

Compound: CCCCCCCn1cnc2sc(C(N)=O)c(C)c2c1=O
- IC50 [4]: 4.9 µM

Compound: O=C(N[C@@H]1[C@@H](O)[C@H](O)[C@@H](CO)O[C@@H]1O)c1ccccc1
- IC50 (Trypanosoma cruzi): 48.7 µM
- Ki [5]: 32 µM
- IC50 [6]: 16.1 µM

Compound: C[C@]12CC[C@H](O)C[C@@H]1CC[C@@H]1[C@@H]2CC[C@]2(C)C(=O)[C@H](Br)C[C@@H]12 [16.ALPHA.-BROMOEPIANDROSTERONE]
- IC50 [7]: 0.086 µM

Compound: Cc1ccc(Nc2ncc3c(n2)CCCC3=O)cc1
- IC50 [4]: 0.48 µM

Compound: C[C@]12CC[C@H](O)CC1=CC[C@@H]1[C@@H]2CC[C@]2(C)C(=O)[C@H](Br)C[C@@H]12
- IC50 [7]: 0.216 µM

Compound: COCCCOc1ccc(C#C[C@@]2(O)CN3CCC2CC3)c(Cc2ccccc2)n1
- IC50 [8]: 0.9 µM
- Ki [8]: 0.0012 µM

Compound: O=P(O)(O)C(Nc1cccc(Br)c1)P(=O)(O)O
- Ki [9]: 1.2 µM

Compound: O=C(N[C@@H]1[C@@H](O)[C@H](O)[C@@H](CO)O[C@@H]1O)OCc1ccccc1
- IC50 (Trypanosoma cruzi): 16.1 µM
- Ki [5]: 0.71 µM
- IC50 [6]: 48.7 µM

Compound: O=P(O)(O)C(O)(Cc1ccncc1)P(=O)(O)O
- Ki [9]: 4.3 µM

Compound: CCn1c2ccccc2c2cc(NC(P(=O)(O)O)P(=O)(O)O)ccc21
- IC50 [10]: 6.4 µM
- Ki [10]: 2.8 µM

Compound: CO[C@H]1CN(c2ccc(C#C[C@@]3(O)CN4CCC3CC4)c(Cc3ccccc3)n2)C[C@H]1O
- IC50 [8]: 6.7 µM
- Ki [8]: 0.0052 µM

Compound: C[C@@H]1[C@H](O)[C@@H](C)/C=C/C=C/C=C/C=C/C=C/C=C/C=C/[C@H](O[C@@H]2O[C@H](C)[C@@H](O)[C@H](N)[C@@H]2O)C[C@@H]2O[C@](O)(C[C@@H](O)C[C@@H](O)[C@H](O)CC[C@@H](O)C[C@@H](O)CC(=O)O[C@H]1C)C[C@H](O)[C@H]2C(=O)O [AMPHOTERICIN B]
- Activity (Leishmania [11]): 93.3%

Compound: O=C(CCl)N1c2ccccc2Oc2ccc(Cl)cc21
- IC50 [1]: 7.6 µM

Compound: O=C(CCl)N1c2ccccc2COc2ccc(Cl)cc21
- IC50 [1]: 7.2 µM
